Experimental data from patent US20140113904A1, “TREATMENT OF CANCER WITH TOR KINASE INHIBITORS” (SIGNAL PHARMACEUTICALS, LLC, priority 2012, published 2014).
Read-outs that look alike come from different tables or passages of the source. Each block holds one molecule with its values, some of them ahead of it.

Columns and labels:
[1] = tested on: pS6RP; assay: pS6RP in PC3 tumors, MSD (Compound 2); type: in vivo, SCID mice; conditions: Mus musculus; for inhibition at 0.1 mg/kg: 0.1 mg/kg single oral dose; for inhibition at 0.3 mg/kg: 0.3 mg/kg single oral dose
[2] = tested on: pDNA-PK (S2056); assay: pDNA-PK (S2056) immunohistochemistry in PC3 tumors (Compound 2); type: in vivo, SCID mice; conditions: 5 mg/kg QD for 6 days
[3] = tested on: 4E-BP1(T46); assay: Phospho-4E-BP1(T46) in PC3 cell lysates, Luminex multiplex; type: cell-based, human; conditions: PC3, 1 hour exposure; read-out: p-4E-BP1(T46) IC50
Text: The direct substrate for TORC1 was 4E-BP 1(T46) and indirect downstream substrate was S6RP(S235/S236). The direct substrate for TORC2 was Akt(S473) and indirect downstream substrates measured were GSK3β(S9) and PRAS40(T246). Additionally, the phosphorylation status of Akt(T308), a phosphorylation site for PDK1 was monitored.
The multiplex Luminex assay format differs from conventional enzyme-linked immunosorbent assay (ELISA) in that the multiplex capture antibody is attached to a polystyrene bead whereas the ELISA capture antibody is attached to the microplate well. The use of the suspension bead-based technology enables the multiplexing capabilities of the Luminex assays. The xMAP® technology uses 5.6 micron polystyrene microspheres, which are internally dyed with red and infrared fluorophores of differing intensities. Each bead is given a unique number, or bead region, allowing differentiation of one bead from another. Beads covalently bound to different specific antibodies can be mixed in the same assay, utilizing a 96-well microplate format. At the completion of the sandwich immunoassay, beads can be read, using the Luminex 100™ or Luminex 200 detection system, in single-file by dual lasers for classification and quantification of each analyte. […]

[4] = tested on: Ki-67; assay: Ki-67 immunohistochemistry in PC3 tumors (Compound 1); type: in vivo, SCID mice; conditions: 25 mg/kg oral QD for 6 days, 2 hours after last dose
Protocol: Two hours after the last dose of either vehicle, Compound 1, or rapamycin, the mice were euthanized and the tumors were dissected. The tumors were snap frozen in liquid nitrogen and processed for immunohistochemistry (IHC) and TUNEL.
Five to ten micron thick cryostat sections of tumor samples were used for IHC. The expression of a cell proliferation marker Ki-67 was evaluated by IHC using anti-Ki-67 antibody. Anti-CD-31 antibody was used to determine blood vessel density and is a measurement of tumor angiogenesis. Frozen sections were fixed in 4% paraformaldehyde for 10 minutes at room temperature, washed in PBS, blocked and permeabilized with normal goat serum and triton x-100. Sections were then incubated with primary antibody (overnight) followed by incubation with secondary antibody (60 minutes). […] The sections were visualized with a Nikon E800 microscope equipped with fluorescence detection equipment and a digital camera attached to a computer.
The tissues sections processed for apoptosis or immunostained for proliferating cells (Ki-67) or blood vessels were quantitated using Metamorph software. Using 20× objective, 5 different fields from each section, 2 to 4 sections from each tumor, and 3 to 4 tumors from each treatment group or control were used for quantitation. The area of interest was expressed as the percent threshold area of the total area.

[5] = 0.5 h, read-out: PD Marker Inhibition (%) pS6RP
[6] = 1 h, read-out: PD Marker Inhibition (%) pS6RP
[7] = 3 h, read-out: PD Marker Inhibition (%) pS6RP
[8] = 6 h, read-out: PD Marker Inhibition (%) pS6RP
[9] = 10 h, read-out: PD Marker Inhibition (%) pS6RP
[10] = 24 h, read-out: PD Marker Inhibition (%) pS6RP

SMILES: CCN1C(=O)CNc2ncc(-c3ccc(-c4nc[nH]n4)nc3C)nc21 [Compound 2, 1-ethyl-7-(2-methyl-6-(1H-1,2,4-triazol-3-yl)pyridin-3-yl)-3,4-dihydropyrazino[2,3-b]pyrazin-2(1H)-one]
inhibition at 0.1 mg/kg [1, 5]: 45.7%
inhibition at 0.1 mg/kg [1, 6]: 38.2%
inhibition at 0.1 mg/kg [1, 7]: 27.2%
inhibition at 0.1 mg/kg [1, 8]: 23.3%
inhibition at 0.1 mg/kg [1, 9]: 17.6%
inhibition at 0.1 mg/kg [1, 10]: 0%
inhibition at 0.3 mg/kg [1, 5]: 69.8%
inhibition at 0.3 mg/kg [1, 6]: 79.6%
inhibition at 0.3 mg/kg [1, 7]: 73.5%
inhibition at 0.3 mg/kg [1, 8]: 67.3%
inhibition at 0.3 mg/kg [1, 9]: 57.9%
inhibition at 0.3 mg/kg [1, 10]: 33.3%
inhibition at 1 mg/kg ([1]; 1 mg/kg single dose, through 10 hours, read-out: inhibition of pS6RP in tumor): ~80%
inhibition at 1 mg/kg ([1]; 1 mg/kg single oral dose, 1 h, read-out: PD Marker Inhibition (%) pS6RP): 84.6%
inhibition at 1 mg/kg ([1]; 1 mg/kg single oral dose, 3 h, read-out: PD Marker Inhibition (%) pS6RP): 89.5%
inhibition at 1 mg/kg ([1]; 1 mg/kg single oral dose, 6 h, read-out: PD Marker Inhibition (%) pS6RP): 82.8%
inhibition at 1 mg/kg ([1]; 1 mg/kg single oral dose, 10 h, read-out: PD Marker Inhibition (%) pS6RP): 78.7%
inhibition at 1 mg/kg ([1]; 1 mg/kg single oral dose, 24 h, read-out: PD Marker Inhibition (%) pS6RP): 0%
inhibition at 10 mg/kg ([1]; 10 mg/kg single dose, through 24 hours, read-out: inhibition of both PD markers (pS6RP, pAKT (S473))): ≥ 80%
inhibition at 10 mg/kg ([1]; 10 mg/kg single oral dose, 1 h, read-out: PD Marker Inhibition (%) pS6RP): 85.3%
inhibition at 10 mg/kg ([1]; 10 mg/kg single oral dose, 3 h, read-out: PD Marker Inhibition (%) pS6RP): 91.3%
inhibition at 10 mg/kg ([1]; 10 mg/kg single oral dose, 6 h, read-out: PD Marker Inhibition (%) pS6RP): 93.5%
inhibition at 10 mg/kg ([1]; 10 mg/kg single oral dose, 10 h, read-out: PD Marker Inhibition (%) pS6RP): 93.7%
inhibition at 10 mg/kg ([1]; 10 mg/kg single oral dose, 24 h, read-out: PD Marker Inhibition (%) pS6RP): 93.2%
reduction in threshold area positive for pDNA-PK (S2056) vs vehicle ([2]; 2 hours after the last dose): 98%
inhibition at 5 mg/kg ([2]; Mus musculus, through 24 hours after the last dose, read-out: pDNA-PK (S2056) inhibition (normalized to total DNA-PKcs)): ~90%

IC50 [3]: 410 nM
SMILES: CO[C@H]1CC[C@H](N2C(=O)CNc3ncc(-c4ccc(C(C)(C)O)nc4)nc32)CC1 [Compound 1, 7-(6-(2-hydroxypropan-2-yl)pyridin-3-yl)-1-((1r,4r)-4-methoxycyclohexyl)-3,4-dihydropyrazino-[2,3-b]pyrazin-2(1H)-one]
reduction in the number of proliferating cells (Ki-67) vs vehicle [4]: 84%
